{"source": "patent US20040157772A1", "about": "“Use of a gatran for the manufacture of a medicament of the treatment of pulmonary fibrosis” (priority 2001, published 2004)", "key": {"[1]": {"system": "bleomycin-induced lung fibrosis", "assay": "Bleomycin-induced lung fibrosis model in rats, inogatran by constant i.v. infusion", "type": "in vivo, Sprague Dawley rats", "method": "Forty male Sprague Dawley rats weighing 200 g were kept in cages (2 rats/cage) covered with filter tops to prevent spreading of carcinogenic metabolites of bleomycin. The rats had free access to food and water.\nThe rats were split into four groups:\nGroup 1—8 rats—received 0.9% NaCl (1 mL/kg) as a control (only 6 animals were ultimately used, the other 2 were used for different purposes).\nGroup 2—8 rats—received induction by way of an i.t. 2.5 mg/kg (1 mL/kg) bleomycin instillation (a 15 IE injection solution (Lundbeck)).\nGroup 3—12 rats—received bleomycin induction as above, plus a constant i.v. infusion of 0.9% NaCl solution (5.0 μL/h) (only 8 animals were ultimately used, the other 4 were used for different purposes).\n(§1) Group 4—12 rats—received bleomycin induction as above, plus a constant i.v. infusion of inogatran (5 μmol/kg/h) loaded in Alzet® 2ML2 pumps at a concentration of 200 μmol/mL (88 mg/mL) in 0.9% NaCl (only 8 animals were ultimately used, the other 4 were used for different purposes).\nThe rats were anaesthetised by way of an i.p. injection (2 mL/kg) of Ketalar™ (50 mg/mL ketamin; Parke-Davis)/Rompun.vet™ (20 mg/mL xylazin; Bayer) (1.75 mL/0.35 mL). A pre-filled minipump connected to a PE60 catheter was inserted into the jugularis vein. A s.c. pocket was created on the back of the animal. The pump was led into this pocket. The incision on the neck was closed with wound clips.\nThe pre-filled pump with catheter was incubated in 37° C. 0.9% NaCl overnight before implantation to enable immediate pumping after surgery. This was to avoid clotting in the catheter.\nAfter 14 days, all rats received an overdose of pentobarbital (i.p.). The rats were weighed and the lung was dissected and weighed. One lobe was placed in Histofix™ (buffered 5% formaldehyde solution) for histological examination. […]\nThe following parameters were measured: […]\nTotal collagen (quantification of hydroxyproline according to the procedure described in Stegemann-Stadler et al, Determinations of Hydroxyproline, Clin. Chim. Acta (1967) 18, 267-273)."}, "[2]": {"assay": "Concentration of inogatran in plasma on day 6", "type": "in vivo", "conditions": "Sprague-Dawley, rat, iv, rats, constant i.v. infusion 5 μmol/kg/h from Alzet pumps, day 6 after implantation, approximately", "method": "as §1\nPlasma and bronchiolar lavage fluid (BAL) were collected from four rats in groups 3 and 4, and from two rats in group 1, six days after induction, for quantification of plasma concentration of compound and thrombin activity in BAL.\nConcentration of inogatran in plasma on day 6."}}, "data": [{"smiles": "N=C(N)NCCCNC(=O)[C@@H]1CCCCN1C(=O)[C@@H](CC1CCCCC1)NCC(=O)O", "note": "[inogatran, HOOC—CH2-(R)Cha-Pic-Nag-H]", "values": [{"measurement": "hydroxyproline content in the lungs (total collagen)", "setting": "[1]; bleomycin i.t. 2.5 mg/kg, constant i.v. infusion 5 μmol/kg/h, day 14, vehicle control 2.34±0.14, P=0.0008", "result": "1.37±0.10", "unit": "μg/mg tissue"}, {"measurement": "inhibition of collagen deposition", "setting": "[1]; bleomycin-induced rats, constant i.v. infusion, day 14", "result": "almost complete inhibition"}, {"measurement": "effect on total lung weight (wet-weight)", "setting": "[1]; bleomycin-induced rats, inogatran 4-5 μmol/kg/hr", "result": "no effect"}, {"measurement": "concentration at 6 day", "setting": "[2]", "result": "2 to 7", "unit": "µM"}]}]}
